Reference: US20020006406A1, “METHOD FOR THE TREATMENT OF STAPHYLOCOCCAL DISEASE” (priority 1997, published 2002)
Like-named read-outs stand apart in the source and are kept apart here.

Columns and labels:
S. aureus = assay: MIC by broth microdilution with 0.1% BSA in the diluent; format: cell-based
Experimental: Lysostaphin sticks to plastic materials and can be lost from solution; this can affect its apparent activity. Therefore, some MIC determinations were also performed with additions of 0.1% bovine serum album (BSA) to the diluent. Otherwise, the method was identical to that cited above. […] Since this observation is related to the affinity of lysostaphin for plastic materials, it is to be expected that, in general, staphylococcal strains are more susceptible to lysostaphin than was observed previously.

[1] = system: methicillin-resistant clinical isolates of S. aureus and 27619VR; assay: Time-kill experiment, four S. aureus strains (FIG. 2); format: cell-based; details: 1 μg/ml; three methicillin-resistant clinical isolates and 27619VR; 2×10^6 to 9×10^7 CFU/ml
Experimental: In another experiment (FIG. 2), three different methicillin-resistant clinical isolates of S. aureus, and a fourth strain, 27619VR, a laboratory-derived ‘VISA’ strain (i.e., with intermediate resistance to vancomycin) derived from a methicillin-resistant clinical isolate, were inoculated into cation-adjusted Mueller-Hinton broth (Becton Dickinson) and grown at 37° C. overnight. They were then diluted into fresh broth and incubated at 37° C. with gentle shaking until they were estimated to have reached the logarithmic stage of growth. […] Lysostaphin was added to each culture at the concentration of 1 μg/ml. At intervals, samples were withdrawn, serially diluted in 0.9% NaCl, and plated by spreading on Mueller-Hinton agar (Becton Dickinson). The agar plates were incubated for 48 hours at 37° C. and the colonies were counted manually.

S. aureus Smith = assay: Acute S. aureus infection model in mice (survival); format: in vivo
Experimental: The efficacy of lysostaphin was compared to that of vancomycin in an acute infection model in mice. S. aureus Smith was cultured overnight, with moderate agitation, in Veal Infusion broth (Difco) and diluted in broth containing 5% hog gastric mucin (Difco). Male Swiss-Webster mice (Taconic Farms, Germantown, N.Y.) weighing approximately 20 grams were infected intraperitoneally with 10^5-10^6 viable cells, approximately tenfold the inoculum that reproducibly killed all untreated animals within 48 h. There were six mice in each treatment group. Lysostaphin was administered intravenously (in 0.1 ml 5% dextrose for injection) or subcutaneously (in 0.2 ml), within 10 min of infection. Vancomycin was administered subcutaneously.

[2] = system: Giorgio strain of S. aureus; details: mice, cited from earlier work
[3] = at least 50 mg/kg/treatment; cited from earlier work
[4] = lysostaphin intravenously vs vancomycin

Q: Which “MIC With BSA” value (S. aureus; strain 401 (clinical isolate)) does the source give for “lysostaphin: recombinant lysostaphin enzyme from fermentation of B. sphaericus; majority component lacks the two N-terminal amino acids of the published sequence” here?
A: 0.015 µg/mL

Q: What about the “MIC With BSA” value (S. aureus; strain 404 (clinical isolate, methicillin-resistant)) of the same substance?
A: 0.008 µg/mL

Q: What about the “MIC With BSA” value (S. aureus; strain 414) of the same substance?
A: 0.03 µg/mL

Q: And the “MIC With BSA” value (S. aureus; strain 417)?
A: 0.03 µg/mL

Q: What about the “MIC With BSA” value (S. aureus; strain 25756 (clinical isolate, methicillin-resistant)) of the same substance?
A: 0.008 µg/mL

Q: And the “MIC With BSA” value (S. aureus; strain 27287 (clinical isolate, methicillin-resistant))?
A: 0.03 µg/mL

Q: And the “MIC With BSA” value (S. aureus; strain 27295 (clinical isolate, methicillin-resistant))?
A: ≦0.004 μg/ml

Q: What about the “MIC With BSA” value (S. aureus; strain 27619 (clinical isolate, methicillin-resistant)) of the same substance?
A: 0.008 µg/mL

Q: What about the “killing of strains in time-kill experiment” value [1] of the same substance?
A: rapidly killed

Q: And the “% survival” value (S. aureus Smith; 0.08 mg/kg iv within 10 min of infection)?
A: 33%

Q: What about the “% survival” value (S. aureus Smith; 0.16 mg/kg iv within 10 min of infection) of the same substance?
A: 100%

Q: And the “% survival” value (S. aureus Smith; 0.31 mg/kg iv within 10 min of infection)?
A: 100%

Q: What about the “% survival” value (S. aureus Smith; 0.63 mg/kg iv within 10 min of infection) of the same substance?
A: 100%

Q: And the “% survival” value (S. aureus Smith; 1.25 mg/kg sc)?
A: 67%

Q: And the “% survival” value (S. aureus Smith; 2.5 mg/kg sc)?
A: 100%

Q: What about the “% survival” value (S. aureus Smith; 5 mg/kg sc) of the same substance?
A: 100%

Q: What about the “% survival” value (S. aureus Smith; 10 mg/kg sc) of the same substance?
A: 100%

Q: And the “% survival” value (S. aureus Smith; 20 mg/kg sc)?
A: 100%

Q: And the “% survival” value (S. aureus Smith; Table 4 experiment, dose 0.04 mg/kg)?
A: 0%

Q: And the “% survival” value (S. aureus Smith; Table 4 experiment, dose 0.08 mg/kg)?
A: 17%

Q: And the “% survival” value (S. aureus Smith; Table 4 experiment, dose 0.16 mg/kg)?
A: 83%

Q: And the “effectiveness relative to vancomycin, on a molar basis” value (S. aureus Smith; [4])?
A: about 200 times

Q: And the “effectiveness relative to vancomycin, on a weight basis” value (S. aureus Smith; [4])?
A: 16 times

Q: What about the “numbers of bacteria in the kidneys” value ([2]; intravenously within 6 hours after infection, dosages of 1.5 mg/kg or higher) of the same substance?
A: significant reductions

Q: And the “numbers of bacteria in the kidneys” value ([2]; treatment withheld for 24 hours or longer, dosages of 125 or 250 mg/kg)?
A: only modest reductions

Q: And the “effectiveness (health of the dogs, reduction of bacteria in heart valves and kidneys)” value [3]?
A: only moderately effective
